In patent US6429291B1, “Hyaluronan receptor protein” (priority 1994, dated 2002):

Legend:
C3 fibroblasts = experiment: Cell locomotion assay, timelapse image analysis of C3 fibroblasts; format: cell-based, murine
Procedure: For motility experiments, 10^5 cells were subcultured into 25 cm^2 tissue culture flasks (Corning), and maintained for 12 h as above. The medium was then aspirated, cells were rinsed with Hanks Balanced Salt Solution (HBSS) (Gibco) and fresh, serum-free α-MEM containing 4.0 μg/ml transferrin (Gibco) and 2.0 μg/ml insulin (Sigma) (defined medium) was added to the flasks.
Cell locomotion was recorded using a computerized timelapse analysis system (Image 1, Universal Imaging Corporation, Westchester, Pa.) that measures nuclear displacement. During the filming period, cells were maintained at 37° C. in defined-media at physiological pH.
A 10 amino acid peptide corresponding to one of the HA binding domains of RHAMM, peptide^aa423-432 (Yang et al., 1993), was synthesised and added at various concentrations (0,0.1, 1.0, 5.0, 10.0 and 50.0 ng/ml) to 70% confluent C3 fibroblasts. Cell locomotion was monitored by image analysis for 2 h from the addition of the peptide. A scrambled peptide was used as control.
RHAMM-GST fusion protein prepared and purified as described in (b) above was added at concentrations of 1 pg/ml, 1 ng/ml, 1 μg/ml and 1 mg/ml to 70% confluent C3 cultures and cell locomotion was monitored by image analysis for 2 h from protein addition as described in Example 5.
For each experiment, 30 cells were tracked every 10 min for a 1 hr period.
RHAMM-GST fusion protein, as described in (d) above, and deleted/mutated RHAMM-GST fusion protein, as described in (h) above were added at 5 ng/ml to subconfluent cultures of C3 cells and cell locomotion was monitored by image analysis for 2 h from protein addition as described in Example 5.

cdc2 mRNA = cdc2 mRNA Northern blot, nuclear run-on and mRNA stability; format: cell-based, murine; details: actinomycin D 20 μg/ml for stability
Procedure: Total cellular RNA was extracted by a rapid RNA isolation method using Trizol reagent (GIBCO) as per manufacturer's instructions. For half-life measurements, transcription was inhibited by addition of 20 ug/ml actinomycin D. RNA was isolated at different times and analyzed for cdc2 gene expression. 20 ug of total cellular RNA was electrophoresed through 1% formamide-agarose gels and blotted onto Nytran membranes. The blots were prehybridized and probed with random primer 32p-labelled murine cdc2 cDNA (Paul Nurse). Loading of RNA was determined by probing with glyceraldehyde-3-phosphate dehyrogenase (GAPDH) cDNA. Autoradiography was done by Phosphoimager SF (Molecular Dynamics) using storage phosphor imaging.
Nuclear run-on assay was performed using 32P-labelled RNA to probe filter-bound cdc2 and GAPDH single strand cDNA inserts. Quantification of transcription was determined by scanning phosphor images using Multiquant software program (Molecular Dynamics).

[1] = HA binding transblot assay with biotinylated HA
Procedure: For the HA-binding assay, cell lysates were separated on SDS-PAGE, transblotted onto nitrocellulose membranes, then blots were incubated with biotinylated HA instead of primary antibody (Yang et al., 1993). Streptavidin-peroxidase conjugate (Sigma) was used as a second antibody, and blots were processed as above.

C3 cells [2] = experiment: Growth analysis (cell density assay); format: cell-based, murine
Procedure: Cell density assay was carried out by seeding 5×10^4 cells in 60 mm dishes. Cells were cultured in DMEM supplemented with 10% FCS. At each point, cells were harvested by trypsinization and cell concentrations were determined by counting cells by trypan blue exclusion method.

p34^cdc2 = experiment: Western blot of p34^cdc2 protein expression; format: cell-based, murine
Procedure: For Western blot analysis, C3 cells in 100 mm dishes were washed 2× in PBS and then lysed in 0.25 ml ice cold buffer containing 50 mM β-glycerophosphate (pH 7.3), 1% Nonidet p-40, 10 mM NaF, 1% aprotinin and 1 mM Sodium Vanadate. The lysates were centrifused at 30,000 g for 20 min at 4° C. Protein concentration was determined by Biorad protein assay kit. Proteins were resolved on 10% SDS-polyacrylamide gels and transferred to nitrocellulose membranes in a Tris-Cl buffer containing 25 mM Tris, 192 mM Glycine and 20% (v/v) methanol, pH 8.3 at 100V for 1 hour at 4° C. Filters were incubated with antibody to p34^cdc2 (1:5000 dilution of polyclonal rabbits antiserum raised against the C-terminal peptide (LDNQIKKM) (SEQ ID NO:58) of Human […] protein) and developed with horseradish peroxidase-conjugated goat antibody to rabbit immunoglobulin G (sigma). Blotting was visualized by enhanced chomilumineacence Western blotting system (Amersham) following manufacturer's instruction.

C3 cells [3] = experiment: Experimental metastasis assay of treated C3 cells (tail vein); format: in vivo, syngeneic C3H/HeN mice
Procedure: C3 cells were serum starved, then cultured in presence of serum and GST or GST-HM for 48-hours and released from the substratum in Hanks. For assessing the tumorigenicity of the treated cells, 3×10^5 viable cells were injected subcutaneously into the right hind leg of syngeneic C3H/HeN Mice. The mice were maintained for 6-8 weeks after which tumors were removed, weighed and pieces processed for histology using conventional paraffin embedding techniques. […] The mice were maintained for 16-18 days, euthanased and their lungs were stained by Boulin solution (picric acid, formaldehyde and acetic acid [15:5.:1]), removed and metastatic foci were counted under dissecting microscope.

C3 cells [4] = experiment: Cell cycle analysis by flow cytometry; format: cell-based, murine; details: serum starved, then serum stimulated; 5 μg/ml GST-RHAMM
Procedure: For cell cycle analysis, cells of the ras-transformed fibroblast cell line C3 were harvested and fixed with 70% ethanol. The fixed cells were denatured by 2N HCl containing 0.5% Triton X-100 at RT for 30 min and then neutralized by treatment with 0.1 M Na2B4O7, pH 8.5. Total DNA content was detected by propidium iodide staining. The stained cells were analyzed by flow cytometry using a Coulter Electronics Inc. EPICS 753 cell sorter and PARA1 cell cycle analysis software.

C3 cells [5] = experiment: Tumorigenicity of treated C3 cells injected subcutaneously; format: in vivo, syngeneic C3H/HeN mice
Procedure: C3 cells were serum starved, then cultured in presence of serum and GST or GST-HM for 48-hours and released from the substratum in Hanks. For assessing the tumorigenicity of the treated cells, 3×10^5 viable cells were injected subcutaneously into the right hind leg of syngeneic C3H/HeN Mice. The mice were maintained for 6-8 weeks after which tumors were removed, weighed and pieces processed for histology using conventional paraffin embedding techniques. For experimental metastasis assays, 4×10^3 treated cells were injected into the tail vein of syngeneic C3H/HeN mice. The mice were maintained for 16-18 days, euthanased and their lungs were stained by Boulin solution (picric acid, formaldehyde and acetic acid [15:5.:1]), removed and metastatic foci were counted under dissecting microscope.

[6] = treated cells that did form tumours

binding to biotinylated HA [1]: showed binding to biotinylated HA
Substance: RHAMM-GST fusion protein: RHAMM II cDNA cloned into pGEX-2T and expressed as soluble glutathione S-transferase-RHAMM fusion protein
concentration at which cell locomotion was significantly inhibited (C3 fibroblasts; 70% confluent C3, 2 h): ≥ 1 ng/mL | effect on cell locomotion (C3 fibroblasts; C3 fibroblasts, result in words): effective inhibitor of cell motility | reduction of locomotion (C3 fibroblasts; at 1 ng/ml, p<0.0001): 40% | reduction in locomotion (C3 fibroblasts; concentrations as low as 1 ng/ml): 3.5 fold | effect on cdc2 mRNA (cdc2 mRNA): degradation of cdc2 mRNA without alteration of transcription | effect on cell proliferation (C3 cells [2]; 5 μg/ml GST-RHAMM): decrease in cell proliferation | fate of treated cells (C3 cells [2]; RHAMM-treated C3 cells): proceeded to cell death | p34^cdc2 expression (p34^cdc2; 10 μg/ml): greatly reduced | effect on p34^cdc2 expression (p34^cdc2; range of concentrations): dose dependent inhibition | Expt. Metastases, Frequency (C3 cells [3]; i.v. injection of 4 × 10^5 treated cells): 3/4 | Expt. Metastases, No. (C3 cells [3]; i.v. injection of 4 × 10^5 treated cells, lung foci): <10 | metastatic capability of C3 cells (C3 cells [3]; pre-treatment of cells): greatly reduced the metastatic capability | effect on cell cycle (C3 cells [4]): arrested and accumulated in G2/M phase | Tumorigenicity, Frequency (C3 cells [5]; C3 cells treated 48 hours before s.c. injection of 3 × 10^5 cells): 2/4 | Tumorigenicity, Latency (C3 cells [5]; s.c. injection of 3 × 10^5 treated cells): 22 days | Tumorigenicity, Tumor size Day 25 (C3 cells [5]; s.c. injection of 3 × 10^5 treated cells, Day 25): 90 ± 0.7 mm² | latency compared to controls (C3 cells [5]; [6]): increased | ultimate tumour size compared to controls (C3 cells [5]; [6]): reduced | reduction of incidence of tumours (C3 cells [5]; treatment of C3 cells prior to inoculation): 50%
